This is an account of results in paper PMC6332318, “Synthetic Development of New 3-(4-Arylmethylamino)butyl-5-arylidene-rhodanines under Microwave Irradiation and Their Effects on Tumor Cell Lines and against Protein Kinases” (Molecules, 2015).

In one series the test system is diploid skin fibroblasts. Put plainly: in vitro inhibition of cell proliferation / survival assay, normal cells control. In kind it is cell-based. The settings on record: Skin fibroblast, Fibroblasts; for IC50: 48 h, average of three assays, standard error ± 0.5 μM; for viability at 25 µM: measured at 25 μM after 48 h, single dose, triplicate, read-out: % of Survival. The protocol:
As an initial effort to investigate their in vitro bioactivity, the new synthesized 3-(4-arylmethylamino)butyl-2-thioxo-1,3-thiazolidine-4-one 9a–n and also their precursors 6a–f were evaluated for their in vitro inhibition of cell proliferation. For this study, we used a panel of seven representative tumoral cell lines, namely HuH7 D12 (differential hepato cellular carcinoma), Caco 2 (differentiating colorectal adenocarcinoma), MDA-MBD231 ([…]), HCT 116 (actively proliferating colorectal adenocarcinoma), PC3 (prostate carcinoma), NCI-H727 (lung carcinoma), HaCat keratinocyte and, diploid skin fibroblasts as normal cell lines for control.
Skin diploid fibroblastic cells were provided by BIOPREDIC International Company (Rennes, France). Caco2 (Ref ECACC: 86010202), Huh-7D12 (Ref ECACC: 01042712), MDA-MB-231 (Ref ECACC: 92020424), HCT-116 (Ref ECACC: 91091005), PC3 (Ref ECACC: 90112714), NCI-H727 (Ref ECACC: 94060303) cell lines were obtained from the ECACC collection and HaCaT (from Cell Lines Service, Eppelheim, Germany). Cells were grown according to ECACC recommendations. The toxicity test of the compounds on these cells was as follows: 2 × 10^3 cells for HCT-116 cells or 4 × 10^3 for the other cells were seeded in 96 multiwell plates in triplicate and left for 24 h for attachment, spreading and growing. Then, cells were exposed for 48 h to increasing concentrations of the compounds, ranging from 0.1 to 25 μM in a final volume of 120 μL of culture medium. Cells were fixed in cooled solution of 90% ethanol/5% acetic acid, nuclei were stained with Hoechst 3342 (Sigma) and counted using automated imaging analysis (Cellomics Arrayscan VTI/HCS Reader, Thermo/Scientific, Waltham, MA, USA). The IC50 were graphically determined.

In a further series the target is T1, HsHaspin (Homo sapiens, UniProt Q8TF76).
T1 construct: HsHaspin-kd aa 470 to 798; GST (from vector pGEX-6P-3; tag and N-terminal position are own knowledge of the vector) (N); made in house; host or cells: Escherichia coli BL21-KRX
T1 sequence (Q8TF76 470-798): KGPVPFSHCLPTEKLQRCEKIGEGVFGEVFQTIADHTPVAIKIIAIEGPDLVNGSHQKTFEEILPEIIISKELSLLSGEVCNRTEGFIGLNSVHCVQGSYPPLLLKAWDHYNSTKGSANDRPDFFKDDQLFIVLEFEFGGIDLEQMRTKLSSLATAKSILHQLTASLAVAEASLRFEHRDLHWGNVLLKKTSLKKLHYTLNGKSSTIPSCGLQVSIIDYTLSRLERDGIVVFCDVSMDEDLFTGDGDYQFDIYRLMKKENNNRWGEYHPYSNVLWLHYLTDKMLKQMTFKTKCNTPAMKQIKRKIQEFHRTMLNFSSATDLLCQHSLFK
Description: protein kinase assay, [γ-33P] ATP. In kind it is biochemical. The protocol: Then, we evaluated the intermediates salts 6a–f and fourteen final compounds 9a–n on four protein kinases: HsCDK5-p25 (cyclin-dependant kinase 5-p25), SsGSK-3α/β (glycogen synthase kinase-3α/β) SsCK1δ/ε (Caseine kinase 1) and HsHaspin as an essential mitotic kinase. […] IC50 values were determined from dose-response curves.
ATP (3000 Ci/mmol; 10 mCi/mL) in a final volume of 30 µL. After 30 min incubation at 30 °C, the reaction was stopped by harvesting, using a FilterMate harvester (Packard, Meriden, CT, USA), onto P81 phosphocellulose papers (GE Healthcare, Velizy-Villacoublay, France) which were washed in 1% phosphoric acid. Scintillation fluid was added and the radioactivity measured in a Packard counter. Blank values were subtracted and activities calculated as pmoles of phosphate incorporated during the 30 min incubation. The activities were expressed in a percentage of the maximal activity, i.e., in the absence of inhibitors. Controls were performed with appropriate dilutions of DMSO. CK1 and Haspin peptide substrates were obtained from Proteogenix (Oberhausbergen, France).
Haspin kinase domain (HsHaspin-kd aa 470 to 798) encoding cDNA, obtain by RT-PCR, was cloned into pGex-6P-3. The fusion protein was expressed in Escherichia coli strain BL21-KRX (Promega, Madison, WI, USA) and purified by affinity chromatography on glutathione-agarose beads (Sigma). Haspin-kd activity was assayed with 3 µM Histone H3 (1-21) peptide, a specific Haspin substrate, ([…]), in Buffer H (MOPS 25 mM pH 7.5; 10 mM MgCl2).

On to `O=C1/C(=C/c2ccc3c(c2)OCO3)SC(=S)N1CCCCNCc1ccc2c(c1)OCO2` [Compound 9h, (5Z)3-[4-(1,3-Benzodioxol-5-ylmethylamino)butyl]-5-(1,3-benzodioxol-5-ylmethylene)-2-thioxo-1,3-thiazolidin-4-one], for which the melting point (commonly the temperature of the solid-liquid transition) is 245 to 256 °C. In the series with diploid skin fibroblasts, the IC50 (as a rule, the point on the concentration scale where inhibition reaches its midpoint) was greater than 25 µM and the viability at 25 µM is 80%. This compound returned an IC50 against HsHaspin greater than 10 µM.
As to `O=C1/C(=C/c2ccc3c(c2)OCCO3)SC(=S)N1CCCCNCc1ccc2c(c1)OCO2` [Compound 9i, (5Z)3-[4-(1,3-Benzodioxol-5-ylmethylamino)butyl]-5-(2,3-dihydro-1,4-benzodioxin-6-ylmethylene)-2-thioxo-1,3-thiazolidin-4-one], the melting point was in the range of 253 to 257 °C. Also, in the series with diploid skin fibroblasts, the concentration for half-maximal inhibition (IC50) was greater than 25 µM and the viability at 25 µM amounted to 54%. On HsHaspin, this compound yielded a half-maximal inhibitory concentration (IC50) greater than 10 µM.
As for `O=C1/C(=C/c2ccc(O)cc2)SC(=S)N1CCCCNCc1ccc2c(c1)OCO2` [Compound 9j, (5Z)3-[4-(1,3-Benzodioxol-5-ylmethylamino)butyl]-5-(4-hydroxy-benzylidene)-2-thioxo-1,3-thiazolidin-4-one], in the series with diploid skin fibroblasts, the IC50 was greater than 25 µM and the viability at 25 µM is 77%. Further, at HsHaspin, the IC50 was greater than 10 µM.
The compound `COc1cc(/C=C2\SC(=S)N(CCCCNCc3ccc4c(c3)OCCO4)C2=O)ccc1O` [Compound 9n, (5Z)3-[4-(2,3-Dihydro-benzo[1,4]dioxin-6-ylmethylamino)butyl]-5-(4-hydroxy-3-methoxybenzylidene)-2-thioxo-1,3-thiazolidin-4-one] displayed a melting point of 202 to 204 °C. Besides, in the series on diploid skin fibroblasts, the IC50 is greater than 25 µM and the viability at 25 µM came out at 86%. Besides, the IC50 against HsHaspin was greater than 10 µM.
